Laboratory results taken from ChEMBL document CHEMBL3137667, “[Drug-induced liver injury; fourteenth updated edition of the bibliographic database of liver injuries and related drugs]” (Gastroenterol Clin Biol, 2004).
Where a SMILES comes first, the peptide text is derived from it. Bridges are numbered along the chain shown (N, C = ends). [ ]: non-standard residue; d: D form. The star is where a group is joined. Threoninol(2S,3R) = C[C@@H](O)[C@H](CO)N*

Legend:
[1] = Comments (NB not yet translated). [column 'COMMENTAIRES' in source]; conditions: human
[2] = human, serum
[3] = human
[4] = human; remark: listed apart in the source
[5] = Proposed mechanism(s) of liver damage. [column 'MEC' in source]; conditions: human
[6] = human, serum; remark: listed apart in the source
[7] = Highest frequency of moderate liver toxicity observed during clinical trials, expressed as a percentage. [column '% BIOL' in source]; conditions: human
[8] = Times to onset, minimal and maximal, observed in the indexed observations. [column 'DELAI' in source]; conditions: human
[9] = human; remark: listed apart in the source
[10] = human; remark: listed apart in the source
[11] = human, serum, 4383 h
[12] = human; remark: listed apart in the source
[13] = human; remark: listed apart in the source
[14] = Highest frequency of acute liver toxicity observed during clinical trials, expressed as a percentage. [column '% AIGUE' in source]; conditions: human
[15] = human; remark: listed apart in the source
[16] = Presence of at least one case with successful reintroduction. [column 'REINT' in source]; conditions: human
[17] = human; remark: listed apart in the source
[18] = human; remark: listed apart in the source
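Throughout, for Hepatotoxicity (association with vascular disease): count of indexed literature references reporting vascular liver injury in humans, e.g. peliosis hepatitis, hepatic veno-occlusive disease or Budd-Chiari syndrome.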
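Throughout, for Hepatotoxicity (benign tumour): value is a count of indexed literature references citing a benign tumour confirmed by histopathology.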
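Throughout, for Hepatotoxicity (choleostasis): human cholestatic liver injury, shown by histopathology or by peak ALT or AST elevation over alkaline phosphatase ratio below 2, value counts indexed literature reports.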
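Throughout, for Hepatotoxicity (chronic liver disease): chronic liver injury confirmed by histopathology or persistently raised serum aminotransferase activity beyond 6 months, value given as the count of indexed literature references.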
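Throughout, for Hepatotoxicity (cirrhosis): value is a count of indexed literature references reporting cirrhosis confirmed by histopathology.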
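Throughout, for Hepatotoxicity (cytolytic): human cytolytic liver injury, shown by histopathology or by a ratio above 5 of peak ALT or AST elevation to alkaline phosphatase elevation, value counts indexed references.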
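Throughout, for Hepatotoxicity (granulomatous hepatitis): value is a count of indexed literature references reporting granulomatous liver disease confirmed by histopathology.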
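Throughout, for Hepatotoxicity (malignant tumour): malignant tumour confirmed by histopathology, value gives the count of indexed literature references reporting it.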
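Throughout, for Hepatotoxicity (severe hepatitis): human clinical data: severe hepatitis, meaning potentially life-threatening liver failure or clinically observed cases, the value counts how many indexed literature references report it.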
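Throughout, for Hepatotoxicity (steatosis): steatosis confirmed by histopathology, value is the count of indexed references.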

| Structure (SMILES) | Hepatotoxicity (comment) [1] | Hepatotoxicity (acute) [2] | Hepatotoxicity (benign tumour) [3] | Hepatotoxicity (choleostasis) [4] | Hepatotoxicity (mechanism) [5] | Hepatotoxicity (moderate) [6] | Hepatotoxicity (moderate) [7] [%] | Hepatotoxicity (time to onset) [8] | Hepatotoxicity (malignant tumour) [9] | Hepatotoxicity (steatosis) [10] | Hepatotoxicity (chronic liver disease) [11] | Hepatotoxicity (cytolytic) [12] | Hepatotoxicity (severe hepatitis) [13] | Hepatotoxicity (acute) [14] [%] | Hepatotoxicity (cirrhosis) [15] | Hepatotoxicity (successful reintroduction) [16] | Hepatotoxicity (association with vascular disease) [17] | Hepatotoxicity (granulomatous hepatitis) [18] | also measured |
| --- | --- | --- | --- | --- | --- | --- | --- | --- | --- | --- | --- | --- | --- | --- | --- | --- | --- | --- | --- |
| CC1=C(CC(=O)O)c2cc(F)ccc2/C1=C\c1ccc([S+](C)[O-])cc1 (stereo not drawn) | LITHIASE CHOLESTASE_PROLONGEE CHOLANGITE | 29 | 0 | 22 | Allergic | 25 | 14.9 | 1 day - 1.5 years | 0 | 4 | 0 | 12 | 3 | 0.2 | 0 | yes | 0 | 0 |  |
| CC1(C)S[C@@H]2[C@H](NC(=O)[C@H](N)c3ccc(O)cc3)C(=O)N2[C@H]1C(=O)O.O=C(O)[C@H]1/C(=C/CO)O[C@@H]2CC(=O)N21 | CHOLANGITE #CBP AC_ANTI-N RC/ERYTHROMYCINE | 74 | 0 | 61 | Allergic | 15 | 15 | < 1 day - 15 weeks | 0 | 7 | 0 | 21 | 8 | 0.3 | 1 | yes | 0 | 6 |  |
| CCC[N+]12[C@H](O)[C@@H](CC)[C@@H]3C[C@H]1[C@@H]1N(C)c4ccccc4[C@]14C[C@H]2C3[C@H]4O (stereo partly drawn) | RC/QUINIDINE CHOLESTASE_PROLONGEE CHOLANGITE | 15 | 0 | 14 | Allergic | 0 | 0 | 3 days - 4 months | 0 | 0 | 2 | 3 | 0 | 0 | 0 | yes | 0 | 2 |  |
| CC1=C(/C=C/C(C)=C/C=C/C(C)=C/CO)C(C)(C)CCC1.O=C(O)Cc1cc(I)c(Oc2ccc(O)c(I)c2)c(I)c1 | AC_ANTI-N | 7 | 0 |  |  | 0 |  | 2 weeks - 9 years | 0 | 0 | 1 |  |  |  | 1 | yes | 0 |  | Hepatotoxicity (choleostasis) ([4]; Liver): 1; Hepatotoxicity (mechanism) ([5]; Liver): Allergic; Hepatotoxicity (moderate) ([7]; Liver): 0%; Hepatotoxicity (cytolytic) ([12]; Liver): 7; Hepatotoxicity (severe hepatitis) ([13]; Liver): 1; Hepatotoxicity (acute) ([14]; Liver): 0%; Hepatotoxicity (granulomatous hepatitis) ([18]; Liver): 0 |
| CCOC(=O)[C@H](CCc1ccccc1)N[C@@H](C)C(=O)N1CCC[C@H]1C(=O)O | DUCTOPENIE RC/CAPTOPRIL | 13 | 0 | 4 | Allergic | 9 | 2.8 | 10 days - 3 years | 0 | 0 | 0 | 7 | 3 | 0 | 0 | yes | 0 | 0 |  |
| C[C@@H](O)[C@H](CO)NC(=O)[C@@H]1CSSC[C@H](NC(=O)[C@H](N)Cc2ccccc2)C(=O)N[C@@H](Cc2ccccc2)C(=O)N[C@H](Cc2c[nH]c3ccccc23)C(=O)N[C@@H](CCCCN)C(=O)N[C@@H]([C@@H](C)O)C(=O)N1 (H-[dF]CF[dW]KTC-{Threoninol(2S,3R)}; disulfide 2-7) | BOUE_BILIAIRE LITHIASE | 3 | 0 | 1 | Dose-dependant | 8 | 17.6 | 1 day - 14 months | 0 | 0 | 0 | 3 | 1 | 0 | 0 | yes | 0 | 0 |  |
| CC(=O)N[C@@H](CS)C(=O)O [ACETYLCYSTEINE] | PERICHOLANGITE | 1 | 0 | 0 | Dose-dependant | 0 | 0 | 4 days | 0 | 1 | 0 | 1 | 0 | 0 | 0 | yes | 0 | 0 |  |
| COc1cc(C)c(/C=C/C(C)=C/C=C/C(C)=C/C(=O)O)c(C)c1C [ACITRETIN] | CHOLANGIOLITE CHOLESTASE_PROLONGEE AGGRAVATION_HVA | 12 | 0 | 1 | Dose-dependant | 16 | 30 | 1.5 hours - 5 months | 0 | 0 | 2 | 5 | 0 | 10 | 1 | yes | 0 | 0 |  |
| O=C(CCCN1CCC(O)(c2ccc(Cl)cc2)CC1)c1ccc(F)cc1 [HALOPERIDOL] | RC/FLUPHENAZINE CHOLESTASE_PROLONGEE #CBP |  | 0 | 8 | Allergic | 12 | 35.1 | 2 weeks - 5 months | 0 | 0 | 1 | 4 | 0 | 0.8 | 0 | yes | 0 | 0 |  |
| C=C[C@H]1C[N@@]2CC[C@H]1C[C@@H]2[C@@H](O)c1ccnc2ccc(OC)cc12 [QUINIDINE] | RC/PRAJMALINE |  | 0 | 12 | Allergic | 5 |  | 1 day - 7 months | 0 | 0 | 1 | 12 |  |  | 0 | yes | 0 | 11 | Hepatotoxicity (moderate) ([7]; Liver): 2%; Hepatotoxicity (severe hepatitis) ([13]; Liver): 2 |
| C=C[C@H]1C[N@@]2CC[C@H]1C[C@H]2[C@H](O)c1ccnc2ccc(OC)cc12 [QUININE] | AC_ANTI-N |  | 0 | 2 | Allergic | 2 |  | < 1 day - 2 years | 0 | 0 | 0 | 3 |  |  | 0 | yes | 0 | 4 | Hepatotoxicity (moderate) ([7]; Liver): 15.4%; Hepatotoxicity (severe hepatitis) ([13]; Liver): 0 |
